The values that follow come from patent US10472336B2, “Modulators of indoleamine 2,3-dioxygenase” (GlaxoSmithKline Intellectual Property (No.2) Limited, priority 2015, dated 2019).

Counter-ions that a name gives are not always drawn.

The term EC50 denotes the midpoint of the concentration-response curve. A low value points to higher potency in that assay.

The target in assay [1] is T1, indoleamine 2, 3-dioxygenase (IDO1) (Homo sapiens, UniProt P14902). Description: HeLa IDOi assay (kynurenine detection by mass spectrometry). It is filed as cell-based. The arrangement: human epithelial HeLa cells (CCL-2; host or cells: HeLa cells stimulated with human IFN-γ. Conditions: IFN-γ stimulated human epithelial HeLa cells, 2 days. On the procedure: (§1) Compounds of the present invention were tested via high-throughput cellular assays utilizing detection of kynurenine via mass spectrometry and cytotoxicity as end-points. For the mass spectrometry and cytotoxicity assays, human epithelial HeLa cells (CCL-2; ATCC®, Manassas, Va.) were stimulated with human interferon-γ (IFN-γ) (Sigma-Aldrich Corporation, St. Louis, Mo.) to induce the expression of indoleamine 2, 3-dioxygenase (IDO1). Compounds with IDO1 inhibitory properties decreased the amount of kynurenine produced by the cells via the tryptophan catabolic pathway. Cellular toxicity due to the effect of compound treatment was measured using CellTiter-Glo® reagent (CTG) (Promega Corporation, Madison, Wis.), which is based on luminescent detection of ATP, an indicator of metabolically active cells.
T1 sequence (P14902 whole entry): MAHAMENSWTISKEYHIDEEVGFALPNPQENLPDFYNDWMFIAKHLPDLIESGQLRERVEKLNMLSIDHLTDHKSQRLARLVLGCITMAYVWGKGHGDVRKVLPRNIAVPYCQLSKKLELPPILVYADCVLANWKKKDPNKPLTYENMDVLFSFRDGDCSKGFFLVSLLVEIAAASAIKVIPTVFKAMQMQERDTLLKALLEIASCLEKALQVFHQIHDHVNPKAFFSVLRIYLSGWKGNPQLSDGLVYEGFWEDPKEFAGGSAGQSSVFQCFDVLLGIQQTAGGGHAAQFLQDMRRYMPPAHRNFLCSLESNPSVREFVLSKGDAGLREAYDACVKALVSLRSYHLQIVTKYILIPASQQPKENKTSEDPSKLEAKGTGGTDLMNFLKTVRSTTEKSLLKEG
(§2) In preparation for the assays, test compounds were serially diluted 3-fold in DMSO from a typical top concentration of 5 mM and plated at 0.5 μL in 384-well, polystyrene, clear bottom, tissue culture treated plates with lids (Greiner Bio-One, Kremsmünster, Austria) to generate 11-point dose response curves. Low control wells (0% kynurenine or 100% cytotoxicity) contained either 0.5 μL of DMSO in the presence of unstimulated (−IFN-γ) HeLa cells for the mass spectrometry assay or 0.5 μL of DMSO in the absence of cells for the cytotoxicity assay, and high control wells (100% kynurenine or 0% cytotoxicity) contained 0.5 μL of DMSO in the presence of stimulated (+IFN-γ) HeLa cells for both the mass spectrometry and cytotoxicity assays.
Frozen stocks of HeLa cells were washed and recovered in DMEM high glucose medium with HEPES (Thermo Fisher Scientific, Inc., Waltham, Mass.) supplemented with 10% v/v certified fetal bovine serum (FBS) (Thermo Fisher Scientific, Inc., Waltham, Mass.), and 1× penicillin-streptomycin antibiotic solution (Thermo Fisher Scientific, Inc., Waltham, Mass.). The cells were diluted to 100,000 cells/mL in the supplemented DMEM medium. 50 μL of either the cell suspension, for the mass spectrometry assay, or medium alone, for the cytotoxicity assay, were added to the low control wells, on the previously prepared 384-well compound plates, resulting in 5,000 cells/well or 0 cells/well respectively. IFN-γ was added to the remaining cell suspension at a final concentration of 10 nM, and 50 μL of the stimulated cells were added to all remaining wells on the 384-well compound plates. The plates, with lids, were then placed in a 37° C., 5% CO2 humidified incubator for 2 days.
(§3) Following incubation, the 384-well plates were removed from the incubator and allowed to equilibrate to room temperature for 30 minutes. For the cytotoxicity assay, CellTiter-Glo® was prepared according to the manufacturer's instructions, and 10 μL were added to each plate well. After a twenty minute incubation at room temperature, luminescence was read on an EnVision® Multilabel Reader (PerkinElmer Inc., Waltham, Mass.). For the mass spectrometry assay, 10 μL of supernatant from each well of the compound-treated plates were added to 40 μL of acetonitrile, containing 10 μM of an internal standard for normalization, in 384-well, polypropylene, V-bottom plates (Greiner Bio-One, Kremsmünster, Austria) to extract the organic analytes. Following centrifugation at 2000 rpm for 10 minutes, 10 μL from each well of the acetonitrile extraction plates were added to 90 μL of sterile, distilled H2O in 384-well, polypropylene, V-bottom plates for analysis of kynurenine and the internal standard on the RapidFire 300 (Agilent Technologies, Santa Clara, Calif.) and 4000 QTRAP MS (SCIEX, Framingham, Mass.). MS data were integrated using Agilent Technologies' RapidFire Integrator software, and data were normalized for analysis as a ratio of kynurenine to the internal standard. […]

The target in assay [2] is T1, indoleamine 2, 3-dioxygenase (IDO1). Description: PBMC IDOi assay (kynurenine detection by mass spectrometry). Format: cell-based. Conditions: IFN-γ and LPS stimulated human PBMC, 2 days. The method, then:
as §1, with “peripheral blood mononuclear” for “epithelial HeLa”, “(PBMC) (PB003F; AllCells®, Alameda, Calif.)” for “(CCL-2; ATCC®, Manassas, Va.)”, “Mo.) and lipopolysaccharide from Salmonella minnesota (LPS) (Invivogen, San Diego, Calif.)” for “Mo.)”
as §2, with “(−IFN-γ/−LPS) PBMCs” for “(−IFN-γ) HeLa cells”, “(+IFN-γ/+LPS) PBMCs” for “(+IFN-γ) HeLa cells”
Frozen stocks of PBMCs were washed and recovered in RPMI 1640 medium (Thermo Fisher Scientific, Inc., Waltham, Mass.) supplemented with 10% v/v heat-inactivated fetal bovine serum (FBS) (Thermo Fisher Scientific, Inc., Waltham, Mass.), and 1× penicillin-streptomycin antibiotic solution (Thermo Fisher Scientific, Inc., Waltham, Mass.). The cells were diluted to 1,000,000 cells/mL in the supplemented RPMI 1640 medium. 50 μL of either the cell suspension, for the mass spectrometry assay, or medium alone, for the cytotoxicity assay, were added to the low control wells, on the previously prepared 384-well compound plates, resulting in 50,000 cells/well or 0 cells/well respectively. IFN-γ and LPS were added to the remaining cell suspension at final concentrations of 100 ng/ml and 50 ng/ml respectively, and 50 μL of the stimulated cells were added to all remaining wells on the 384-well compound plates. The plates, with lids, were then placed in a 37° C., 5% CO2 humidified incubator for 2 days.
as §3, with “and 40” for “and 10”

For `CC(C)CN(c1ccc(C(CC(=O)O)C(F)(F)F)cc1Nc1nc(Cl)ns1)C1CCCCC1` (centres unmarked) [Example 71, 3-(3-((3-Chloro-1,2,4-thiadiazol-5-yl)amino)-4-(cyclohexyl(isobutyl)amino)phenyl)-4,4,4-trifluorobutanoic Acid], the EC50 in assay [1] is 0.00631 µM; in assay [2] it was 0.000794 µM.

Consider `CC(C)CN(c1ccc(C(C)CC(=O)O)cc1NCc1nccs1)C1CCCCC1` (centres unmarked) [Example 21, 3-(4-(cyclohexyl(isobutyl)amino)-3-((thiazol-2-ylmethyl)amino)phenyl)butanoic acid], for which the half-maximal effective concentration (EC50) was 0.501 µM in assay [1] and 0.251 µM in assay [2].

Take `CC(C)CN(CC(C)C)c1ccc(C(C)CC(=O)O)cc1Nc1nc(Cl)ns1` (centres unmarked) [Example 25, 3-(3-((3-chloro-1,2,4-thiadiazol-5-yl)amino)-4-(diisobutylamino)phenyl)butanoic acid]: the figures for the EC50 in assay [1] and in assay [2] were 0.0316 µM and 0.0251 µM, respectively.

Regarding `Cc1nc(C(F)(F)F)sc1Nc1cc(C(C)CC(=O)O)ccc1N(CC(C)C)CC(C)C` (centres unmarked) [Example 60, 3-(4-(diisobutylamino)-3-((4-methyl-2-(trifluoromethyl)thiazol-5-yl)amino)phenyl)butanoic acid], the half-maximal effective concentration (EC50) is 0.501 µM in assay [1] and 0.398 µM in assay [2].

In the case of `CC(C)CN(c1ccc([C@@H](C)CC(=O)O)cc1Nc1nc(Cl)ns1)C1CCCCC1` [Example 39, (S)-3-(3-((3-chloro-1,2,4-thiadiazol-5-yl)amino)-4-(cyclohexyl(isobutyl)amino)phenyl)butanoic acid], the 50% effective concentration (EC50) in assay [1] was 0.0126 µM; in assay [2], 0.00126 µM.

On to `CC(C)CN(c1ccc(C(C)CC(=O)O)cc1Nc1ccc(C(F)(F)F)cc1)C1CCCCC1` (centres unmarked) [Example 66, 3-(4-(cyclohexyl(isobutyl)amino)-3-((4-(trifluoromethyl)phenyl)amino)phenyl)butanoic acid], for which a half-maximal effect in assay [2] (EC50) was put at 0.00126 µM.

As to `CC(C)CN(c1ccc(C(C)CC(=O)O)cc1Nc1cccc(C(F)(F)F)c1)C1CCCCC1` (centres unmarked) [Example 65, 3-(4-(cyclohexyl(isobutyl)amino)-3-((3-(trifluoromethyl)phenyl)amino)phenyl)butanoic acid], a half-maximal response in assay [2] (EC50) required 0.0158 µM.

Compound `CC(C)CN(c1ccc([C@H](C)CC(=O)O)cc1NC1CCCCC1)C1CCCCC1` [Example 64, (R)-3-(4-(cyclohexyl(isobutyl)amino)-3-(cyclohexylamino)phenyl)butanoic acid] gave an EC50 in assay [2] of 0.0631 µM.

Regarding `CC(C)CN(c1ccc(C(C)CC(=O)O)cc1Nc1ccc(C#N)cc1)C1CCCCC1` (centres unmarked) [Example 67, 3-(3-((4-cyanophenyl)amino)-4-(cyclohexyl(isobutyl)amino)phenyl)butanoic acid], the EC50 in assay [2] was 0.000794 µM.

Take `CC(C)CN(CC(C)C)c1ccc(C(C)CC(=O)O)cc1Nc1nc(C2CC2)ns1` (centres unmarked) [Example 30, 3-(3-((3-cyclopropyl-1,2,4-thiadiazol-5-yl)amino)-4-(diisobutylamino)phenyl)butanoic acid]: it took 0.0501 µM to reach a half-maximal effect in assay [1] (EC50).

In assay [1], `CC(C)CN(c1ccc(C(C)CC(=O)O)cc1NCc1ccccc1)C1CCCCC1` (centres unmarked) [Example 69, 3-(3-(Benzylamino)-4-(cyclohexyl(isobutyl)amino)phenyl)butanoic Acid] had an EC50 of 0.158 µM.

Take `CC(C)CN(CC(C)C)c1ccc(C(C)CC(=O)O)cc1Nc1nnc(-c2ccccc2)s1` (centres unmarked) [Example 27, 3-(4-(diisobutylamino)-3-((5-phenyl-1,3,4-thiadiazol-2-yl)amino)phenyl)butanoic acid]: a half-maximal response in assay [1] (EC50) required 0.0316 µM.

In assay [1], `CC(C)CN(c1ccc(C(C)CC(=O)O)cc1NC1CCOCC1)C1CCCCC1` (centres unmarked) [Example 70, 3-(4-(Cyclohexyl(isobutyl)amino)-3-((tetrahydro-2H-pyran-4-yl)amino)phenyl)butanoic Acid] showed an EC50 of 0.126 µM.

`CCCCc1cc(C(C)CC(=O)O)cc(Nc2nc3ccccc3o2)c1OCCC` (centres unmarked) [Example 35, 3-(3-(benzo[d]oxazol-2-ylamino)-5-butyl-4-propoxyphenyl)butanoic acid]: in assay [1], the EC50 is 0.2 µM.

In assay [1], `CC(C)CN(CC(C)C)c1ccc(C(C)CC(=O)O)cc1Nc1nc(-c2ccccc2)no1` (centres unmarked) [Example 51, 3-(4-(diisobutylamino)-3-((3-phenyl-1,2,4-oxadiazol-5-yl)amino)phenyl)butanoic acid] had a half-maximal effective concentration (EC50) of 0.398 µM.

In turn, `CC(C)CN(c1ccc(C(C)CC(=O)O)cc1Nc1ccccc1)C1CCCCC1` (centres unmarked) [Example 68, 3-(4-(cyclohexyl(isobutyl)amino)-3-(phenylamino)phenyl)butanoic acid] showed a concentration for a half-maximal effect (EC50) in assay [2] of 0.00316 µM.

On to `CC(C)CN(CC(C)C)c1ccc(C(C)CC(=O)O)cc1Nc1ccnc(Cl)n1` (centres unmarked) [Example 11, 3-(3-((2-chloropyrimidin-4-yl)amino)-4-(diisobutylamino)phenyl)butanoic acid, 2,2,2-trifluoro-acetic acid salt], for which the EC50 in assay [1] is 0.1 µM.

Compound `Cc1csc(Nc2cc(C(C)CC(=O)O)ccc2N(CC(C)C)CC(C)C)n1` (centres unmarked) [Example 24, 3-(4-(diisobutylamino)-3-((4-methylthiazol-2-yl)amino)phenyl)butanoic acid] had an EC50 in assay [1] of 0.316 µM.
